# Experimental data published in paper PMC3522636, “4F Decreases IRF5 Expression and Activation in Hearts of Tight Skin Mice” (PLoS ONE, 2012).
# “Also recorded” adds a separate entry of the source.
# Experiments:
# proinflammatory HDL = conditions: cited from earlier work
# From the text: Scleroderma is an autoimmune disease that is characterized by marked increases in fibrosis of the skin and internal organs in conjunction with enhanced apoptosis. The tight skin (Tsk^−/+) mouse is a murine model of systemic scleroderma that replicates many of the features observed in patients suffering from this disease.
# [1] = system: Human umbilical vein endothelial cells; experiment: Cellular uptake of B-4F in endothelial cells; type: cell-based; conditions: B-4F 10 and 50 µg/ml; vs unlabeled 4F; 4 hours (method), 3 hours (Figure 6); confocal
# Protocol: Human umbilical vein endothelial cells (EC; Lonza, Walkersville, MD) were incubated in EGM complete media containing 4F or B-4F (10 and 50 µg/ml) for 4 hours. The EC cultures were washed with PBS, fixed in PBS containing 1% paraformaldehyde, and permeabilized with PBS containing 0.5% Triton-X. The permeabilized sections were incubated with fluorescein-conjugated streptavidin (1 µg/ml) for 30 minutes followed by 3 PBS washes. The fixed and fluorescently labeled slides were mounted in aqueous mounting media and sections inspected and analyzed by confocal microscopy.
# [2] = cited from earlier work
# From the text: (§1) Although there is much support for the idea that 4F inhibits atherosclerosis by improving HDL function, the mechanism by which 4F decreases inflammation has not been identified completely. […] During the course of our studies for our report, [3], we found the anti-inflammatory effects of 4F on the Tsk^−/+ mice to be so profound that it was ...
# HDL = conditions: proposed mechanism; cited from earlier work
# From the text: as §1
# Tsk−/+ mice [3] = conditions: 1 mg/kg/d, 6–8 weeks; cited from earlier work
# From the text: One of the reasons that we felt 4F decreased inflammation by a mechanism(s) other than those mediated by HDL function, was the extreme differences in the histopathology of the hearts from untreated and 4F treated Tsk^−/+ mice. Untreated Tsk^−/+ hearts contained much higher levels of oxidized phospholipids, and autoantibodies against oxidized lipids than control hearts. In addition, untreated Tsk^−/+ hearts were also more fibrotic and expressed more angiostatin than control hearts, which likely contributed to the notable losses in angiogenic potential in the hearts of these mice. Wh ...
# TNFα, Il-6, and Il-1 = conditions: cited from earlier work
# From the text: The purpose of this study was to investigate an alternative mechanism for 4F decreasing myocardial inflammation in Tsk^−/+mice. While our previous report focused on 4F’s ability to decrease inflammation by improving HDL function, the current study determines the effects of 4F on IRF5. We chose to investigate this potential mechanism for two important reasons. […] These inflammatory mediators are all gene products of IRF5 [9], [29]. Second, genetic links between IRF5 and SSc have been ide ...
# Tsk−/+ hearts = experiment: TUNEL assay, apoptotic cells in heart sections; type: in vivo, mouse; conditions: 4F 1 mg/kg/d, sc; 4F-treated vs untreated Tsk−/+ hearts
# From the text: (§2) All experimental procedures and protocols involving mice were reviewed and approved by the Institutional Animal Care and Use Committee (IACUC) of the Medical College of Wisconsin (AUA#512). They also conformed to the rules in the Guiding Principles in the Care and Use of Animals published by the American Physiologic Society and the Guide for the Care and Use of Laboratory Animals published by OLAW. Male Tsk^−/+ and C57Bl/6J mice (6–8 weeks of age) were purchased from Jackson Laboratories (Bar Harbor, ME). Three groups of mice were studied; C57Bl/6J, Tsk^−/+, and Tsk^−/+ mice treated with 4F (1 mg/kg/d, sc) as published previously.
# Hearts were harvested from mice, flash frozen and imbedded in OCT and cut into 10 µm sections. A TUNEL assay was performed on the sections using an ApopTag Plus Fluorescein labeled kit (Millipore, Billerica, MA, Cat# S7111) as per the manufacturer’s instructions. Briefly, the free 3'OH DNA termini were labeled in situ with an anti-digoxigenin antibody conjugated to fluorescein. Nuclei were stained with TO-PRO 3™ for 3 minutes (1 µg/ml, Invitrogen). Slides were mounted and analyzed by confocal microscopy (Nikon Eclipse TE2000-U, EZ-C1-2 10 software, Nikon, Melville, NY). Images were captured using 488 nm excitation for fluorescein and 633 nm for nuclear labeling. Intensity was measured using Nikon Element imaging software (Nikon).
# IRF5 = IRF5 immunoprecipitation, phosphoserine and ubiquitin on IRF5 in heart lysates; type: in vivo, mouse
# From the text: as §2
# To determine the effects of strain and 4F treatments on the activation state of IRF5 we immunoprecipitated IRF5 from heart homogenates and examined changes in phosphoserine and ubiquitination on IRF5 using previously published protocols, [15]. Briefly, heart homogenates were precleared with agarose beads for 1 hour followed by addition of anti-IRF5 antibody (Santa Cruz Biotechnologies) to the homogenates (500 µg in 0.5 ml) at 5 µg/100 µl (final concentration). Samples were incubated for 16 h at 4°C with end-over-end mixing. A 50 µl aliquot of a 50% slurry of Protein A agarose beads (Santa Cruz Biotechnologies) was added and incubated for 2 h with end-over-end mixing to pull-down immunocaptured IRF5. The beads were isolated by centrifugation and washed 3 times (3 minutes each time) in PBS. IRF5 was released from the beads with Laemmli sample buffer (Bio-Rad, Hercules, CA) containing mercaptoethanol and heating to 95°C for 5 min. IRF5 was separated from co-precipitated proteins by SDS-PAGE (4–15% Tris·HCl Criterion gels, Bio-Rad) and the proteins transferred onto nitrocellulose membranes. Membranes were blocked in 10% non-fat dry milk and then incubated in 2% non-fat dry milk containing polyclonal rabbit anti-phosphoserine (Antibodies-Online, Atlanta, GA, 1∶200 dilution), monoclonal mouse anti-ubiquitin (Santa Cruz Biotechnologies, 1∶200 dilution) or monoclonal mouse anti-K^63 ubiquitin (Enzo, Farmingdale, NY, 1∶500 dilution) overnight at 4°C. The next day, the membranes were gently washed and incubated with the HRP-conjugated donkey anti-rabbit antibody (1∶5,000, Santa Cruz Biotechnologies). Autoradiograms were developed; images of bands captured and densities analyzed as described above.
# Tsk−/+ mice [4] = experiment: Transthoracic echocardiography, posterior wall thickness / heart function; type: in vivo, mouse
# From the text: as §2
# Tsk^−/+ and C57BL/6J mice (n = 6) were anesthetized by isoflurane inhalation (1.50%) and oxygen. They were place on a warming platform supine position. A VisualSonics Vevo 770 high-resolution imaging system (Toronto, Canada) equipped with a 30-MHz transducer (Scanhead RMV 707) was used to perform the transthoracic echocardiography. Two-dimensional guided M-mode LV dimensions were measured and posterior wall thickness was analyzed.
substance,measurement,setting,value
Ac-DWFKAFYDKVAEKFKEAF-NH2 [4F],proinflammatory HDL levels,proinflammatory HDL,decrease proinflammatory HDL levels
same,uptake into EC (in words),[1],enters EC in a concentration-dependent fashion
same,affinity for oxidized versus native lipids,[2],greater affinity for oxidized rather than native lipids
same,preβ HDL formation and HDL-dependent cholesterol efflux,HDL,formation of preβ HDL with improved HDL-dependent cholesterol efflux
same,reverse cholesterol transport,HDL,improvements in reverse cholesterol transport
same,oxidized phospholipids and autoantibodies against oxidized phospholipids in hearts,Tsk−/+ mice [3],"essentially eliminated oxidized phospholipids, and autoantibodies against oxidized phospholipids from the hearts"
same,"expression of TNFα, Il-6, and Il-1","TNFα, Il-6, and Il-1","decreases expression of TNFα, Il-6, and Il-1"
same,TUNEL positive (apoptotic) cells,Tsk−/+ hearts,decreased both measurements in Tsk^−/+ hearts; also recorded: significantly decreased the number of TUNEL positive cells in Tsk^−/+ hearts compared to the number in untreated Tsk^−/+ hearts but not to the level of TUNEL positive cells in C57Bl/6J hearts; also recorded: increased compared with the levels in the hearts of C57BL/6J mice and hearts from 4F-treated Tsk^−/+ mice; also recorded: fewer apoptotic cells than hearts from untreated Tsk^−/+ mice
same,phosphoserine levels on IRF5 (in words),"IRF5; 4F 1 mg/kg/d, sc, Tsk−/+ hearts, IRF5 immunoprecipitates",decrease phosphoserine; also recorded: reduced phosphoserine levels on IRF5 in Tsk^−/+ hearts
same,decrease of phosphoserine levels on IRF5,"IRF5; 4F-treated Tsk−/+ hearts vs C57BL/6J and untreated Tsk−/+ hearts, IRF5 immunoprecipitates, Western blot",about 15%
same,total ubiquitin on IRF5,"IRF5; 4F-treated Tsk−/+ hearts vs C57BL/6J hearts, * = p<0.05, n = 4, IRF5 immunoprecipitates",increase total ubiquitin on IRF5; also recorded: increased in 4F-treated Tsk^−/+ hearts compared with the levels on IRF5 in C57BL/6J hearts; also recorded: significantly increased total ubiquitin levels on IRF5 in the Tsk^−/+ hearts
same,IRF5 activation (in words),"IRF5; 4F-treated Tsk−/+ hearts, inferred from phosphoserine and ubiquitin on IRF5",decrease IRF5 expression and activation in Tsk^−/+ hearts; also recorded: inactivated in 4F-treated Tsk^−/+ hearts
same,posterior wall thickness,"Tsk−/+ mice [4]; 4F 1 mg/kg/d, sc, 6–8 weeks, 4F-treated Tsk−/+ vs untreated Tsk−/+ mice, p<0.05, n = 6, M-mode echocardiography, isoflurane",significantly increased in Tsk^−/+ compared to C57Bl/6J (control) and Tsk^−/+ mice with 4F treatment; also recorded: significantly higher in the Tsk^−/+ mice compared to C57Bl/6J and Tsk^−/+ mice treated with 4F; also recorded: significantly improved
same,onset of heart failure,Tsk−/+ mice [4]; 4F treatment of Tsk−/+ mice (Figure 1),appear to delay the onset of heart failure in Tsk^−/+ mice
